Data from US20160318844A1, “PROSTACYCLIN COMPOUNDS, COMPOSITIONS AND METHODS OF USE THEREOF” (Insmed Incorporated, priority 2015, published 2016).
Entries after “also recorded” stand apart in the source; their conditions may differ. Like-named read-outs stand apart in the source and are kept apart here. Values belong to the molecule of their own block, whether it stands above or below them.

Assays:
esterase = assay: Esterase mediated conversion of treprostinil compounds to treprostinil; assay type: in vitro ADME; settings: esterase at 37° C., up to 1 hr
Description: A set of studies was conducted to determine the conversion kinetics to treprostinil of linear treprostinil compounds versus various branched treprostinil compounds. 0.4 mM of linear C8-TR or branched treprostinil compounds 2-dimethyl-1-propanyl-TR, 3,3-dimethyl-1-butanyl-TR, 2-ethyl-1-butanyl-TR, 5-nonanyl-TR, or 3-pentanyl-TR (see below for structures) were incubated with 0.2 U esterase at 37° C. for 1 hour, and the conversion (% of total) was calculated at 0.25, 0.5, 0.75, or 1 hour incubation time. • C8-TR (i.e., the compound of Formula (A) wherein R2=
The conversion is relative to the C8-TR compound and conversion was measured at 1 hr. post esterase incubation. • C8-TR (i.e., the compound of Formula (A) wherein R2=
Conversion was measured at 1 hr. post esterase incubation. • 4C7-TR (i.e., the compound of Formula (A) wherein R2=

physchem = settings: organic solvent or mixture, thermodynamic from solid
Description: Selected treprostinil derivatives were evaluated for the use in a metered dose inhaler (MDI).
5 mg of each treprostinil compound was added in a glass bottle. Specific amount of ethanol was added by weight. An MDI valve was crimped to each bottle, and HFA propellant added through the valve to the total volume of 5 mL. Compounds were allowed to dissolve for 24 hours at room temperature. The formulations were assessed visually for solubility. The goal was to estimate the minimum ethanol concentration required to solubilize each compound in propellant.
Soluble samples presented as clear and colorless solutions. […] Non-soluble samples had white precipitate or crystals formed. Ethanol was added as a solubility aid.

EP2 prostanoid receptor = molecular target: T1, EP2 prostanoid receptor (Homo sapiens, UniProt P43116); assay: GloSensor cAMP assay in CHO-K1 cells co-transfected with the EP2 receptor; assay type: cell-based
T1 construct: host or cells: CHO-K1
Excerpt: cAMP is a second messenger involved in signal transduction of G-protein coupled receptors (GPCRs) acting through Gα-s and Gα-i proteins. Because the treprostinil receptor is a GPCR, the assay provides an indication of whether the respective prostacyclin compound (or metabolite thereof) binds its receptor and activates the GPCR cell signaling cascade. The GloSensorTM assay harnesses a genetically modified form of firefly luciferase into which a cAMP-binding protein moiety has been inserted. Upon binding of cAMP, a conformational change is induced leading to increased light output. The EP2 prostanoid receptor was cotransfected with the GioSensorm plasmid (Promega) into CHO-K cells as follows. CHO-K cells were harvested when the monoloayer was at 50-90% confluence. First, cells were washed with 5 mL PBS. […] The media was aspirated, and the cell pellet was resuspended in 10 mL of growth media. Cell number was determined using a hemacytometer. […] For small scale transfections of up to 20 wells, the pGLoSensor-22F cAMP plasmid (Promega, Cat #: E2301) (2 apg): […] Cat #: […] P2271) ratio was diluted to a final concentration of 12.6 ng/μL (total plasmid) in Opti-MEM I reduced-serum medium (Life Technologies, Cat #: 1985062). Next, 6 μL of FuGENE HD transfection reagent (Promega, Cat #: E2311) was added to 160 μL of diluted plasmid and mixed carefully by gentle pipetting. The complex was incubated at room temperature for 0 to 10 minutes, and then 8 μL of the complex was added per well of a 96 well white assay plate (Costar, Cat #: 3917) and gently mixed without disturbing the cell monolayer. […] Following incubation, cells were treated and analyzed. For larger scale transfections, the aforementioned steps were scaled up accordingly, and cells were frozen following the last incubation. In order to prepare frozen transfected CHO-K cells, the media was aspirated from culture flasks and cells were rinsed with 5 mL PBS. […] Cell number was determined using a hemacytometer. The media was aspirated, and the cell pellet was resuspended in freezing media (Millipore, cat #: S-002-SF) at 2.5×10^4 cells/vial. Transfected cells were incubated overnight at -80° C. before transfer to liquid nitrogen for long term storage. […] SH30071.03)). […] In preparation for cAMP measurement, the cells were equilibrated with the GloSensor cAMP reagent prior to treatment. For equilibration, the medium was carefully removed from the individual well. Next, 100 μL of equilibration medium ([…] of Glosensor Reagent stock solution (Promega, Cat #: E291), 10% FBS (Hydone, Cat #: SH30071.03) and 88% CO2 independent medium (Life Technologies, Cat #: 18045088)) was added per well of the 96-well plate, and added to the side of each well. The plate was then incubated for 2 hours at room temperature. A first pre-read measurement was taken using a microplate reader (MicroLumat Plus). Plates were incubated for an additional 10 minutes at room temperature, followed by a second pre-read measurement. […] Following treatment, each plate was read every 5 minutes for the duration of the assay using a microplate reader (MicroLumat Plus). In order to determine the fold change in cAMP relative to the control, the transfection efficiency was first determined by dividing the second pre-read measurement by the average of the corresponding pre-read measurements. Next, the normalized relative light units (RLUs) of the samples were determined by dividing the plate read measurement by the transfection efficiency. The fold change in cAMP relative to the control was then determined by dividing the normalized RLU of the samples by the normalized RLU of the control. The cAMP assay was validated using free treprostinil. […] Luminescence was then measured at room temperature. […] Nebulizer Aeroneb Pro (Aerogen) was used to nebulize treprostinil derivative compositions. Desired volume of the formulation (usually 3 mL) was loaded to the mesh head of the nebulizer. […]

CHO-K1 cells = assay: CHO-K1 cell proliferation assay (Presto Blue); settings: Table 9, unformulated alkyl esters, (0.195 μM-25 μM), 48 hour incubation
Description: CHO-K1 cells were harvested when the cell monolayer was 50-90% confluent (use passage 4-11). Media was aspirated out of the flask, and cells were rinsed with 2 mL of F12 media. Next, 1 mL of pre-warmed (37° C.) 0.25% trypsin-EDTA (Life Technologies, Cat#: 25300054) was added, and cells were dislodged from the flask by tapping it on the side. Complete growth media (F12 (Life Technologies, Cat #: 31765092)+10% FBS (Hyclone, Cat #: SH30071.03)+1× Pen-Strep (Life Technologies, cat #15140-122) was then added at a volume of 10 mL. Cells were centrifuged at 250×g for 5 minutes at room temperature, and the media was aspirated. The cell pellet was resuspended in 10 mL complete growth media. Cell number was determined using a hemacytometer. Cells were then seeded at 2000 cells per well of a 96-well plate in 100 μL of complete growth media. The plate was incubated overnight at 37° C. and 5% CO2 in a water-jacketed incubator.
The next day, 80 μL of fresh complete media was added to each well, and CHO-K1 cells were challenged with treprostinil compound and composition treatments. The working solutions were prepared at 10× concentration, and following 2 fold serial dilutions, 20 μL aliquots were added per well to arrive at a final 1× concentration. Following a 48 hour incubation at 37° C. and 5% CO2 in a water-jacketed incubator, the inhibitory effect on cell proliferation was determined. Plates were analyzed using 20 μL of Presto Blue reagent (Life Technologies, cat #: A13262) per well. The reagent was mixed, and plates were incubated for 1 hour at 37° C. and 5% CO2 in a waterjacketed incubator. Plates were read using either a CytoFluor Series 4000 (PerSeptive BioSystems) or Synergy Neo microplate reader (BioTek) with emission λ: 590 nm and excitation λ: 560 nm. […]
CHO-K1 cells were challenged with treprostinil alkyl esters, i.e., TR compounds of Formula (A), having the following R2 groups: […]
C2, C3, C4, C5, C6, C8, C10 or C12 straight chain alkyl, at dosages ranging from 0.098 μM to 25 μM. Following a 48 hour incubation period, the inhibitory effect on cell proliferation was determined.
Following a 72 hour incubation period, the inhibitory effect on cell proliferation was determined. Following a 48 hour incubation period, the inhibitory effect on cell proliferation was determined. […]

NR8383 cells = assay: NR8383 cell proliferation assay; assay type: cell-based, rat; settings: Table 9, unformulated alkyl esters, (0.195 μM-25 μM), 72 hour incubation
Description: Rat alveolar NR8383 cells were harvested when the monolayer was 50-90% confluent (use passage 5-11). Because the NR8383 cells include both adherent and non-adherent cells, media was transferred to a 50 mL Falcon tube. To obtain the cells remaining in the flask, 2 mL of plain media was added, and the remaining cells were scraped out of the 75 cm^2 flask with a cell scraper and added to the 50 mL tube. […] SH30071.03)+1×Pen-Strep (Life Technologies, cat #: 15410-122)). Cell number was determined using a hemacytometer. […] Measurements and calculations were made as described above for the CHO-K1 cells. Rat alveolar NR8383 cells were challenged with the same treprostinil derivative compositions: […]

T1 sequence (P43116 whole entry): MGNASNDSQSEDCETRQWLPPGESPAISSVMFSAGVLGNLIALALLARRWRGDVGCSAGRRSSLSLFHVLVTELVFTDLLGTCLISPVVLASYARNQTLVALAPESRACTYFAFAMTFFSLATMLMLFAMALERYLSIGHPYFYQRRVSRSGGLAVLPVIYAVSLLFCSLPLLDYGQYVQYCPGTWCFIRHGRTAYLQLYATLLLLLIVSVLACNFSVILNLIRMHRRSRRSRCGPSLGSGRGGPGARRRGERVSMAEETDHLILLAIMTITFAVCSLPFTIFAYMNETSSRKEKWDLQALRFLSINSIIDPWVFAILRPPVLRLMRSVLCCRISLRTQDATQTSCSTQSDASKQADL

SMILES: CCCCCC[C@@H](C)OC(=O)COc1cccc2c1C[C@H]1C[C@@H](O)[C@H](CC[C@@H](O)CCCCC)[C@H]1C2 [(R)-2C8-TR]
- conversion rate compared with other compound (esterase): no significant difference

SMILES: CCCCCC[C@H](C)OC(=O)COc1cccc2c1C[C@H]1C[C@@H](O)[C@H](CC[C@@H](O)CCCCC)[C@H]1C2 [(S)-2C8-TR]
- conversion rate compared with other compound (esterase): no significant difference

SMILES: CCCCC[C@H](O)CC[C@@H]1[C@H]2Cc3cccc(OCC(=O)OC(CCC)CCC)c3C[C@H]2C[C@H]1O [Compound 4C7-TR]
- conversion rate compared with other compound (esterase): slower conversion rate than the linear compound C-TR

SMILES: CCCCC[C@H](O)CC[C@@H]1[C@H]2Cc3cccc(OCC(=O)OC(CCC)CCCC)c3C[C@H]2C[C@H]1O (stereo partly shown) [Compound 4C8-TR]
- conversion rate compared with other compound (esterase): slower conversion rate than the linear compound C-TR; also recorded: slower conversion rate than the symmetrical compounds (4C7-TR and 5C9-TR)

- solubility at 24 h (physchem; Solubility in HFA-134a with added ethanol): < 1000 µg/mL
- solubility at 24 h (physchem; Solubility in HFA-227 with added ethanol): > 1000 µg/mL
- change of potency with incubation time (EP2 prostanoid receptor; cAMP dose response curves, 0.5 hr to 8 hr): increases with incubation time
- ranking of activity (EP2 prostanoid receptor; kinetic profile at 10 μM and 5 μM): C12-TR>C14-TR>5-nonanyl-TR>C16-TR
- conversion rate compared with other compound (esterase; listed as 5-nonanyl-TR): slower conversion rate than linear C8-TR
SMILES: CCCCC[C@H](O)CC[C@@H]1[C@H]2Cc3cccc(OCC(=O)OC(CCCC)CCCC)c3C[C@H]2C[C@H]1O [Compound 5C9-TR, 5-nonanyl-treprostinil]
- conversion rate compared with other compound (esterase): slower conversion rate than the linear compound C-TR

- EC50 (EP2 prostanoid receptor; 4.5 hr incubation time, read-out: EC50 (μM) 4.5 hr): 1.84 µM
- EC50 (EP2 prostanoid receptor; 6.0 hr incubation time, read-out: EC50 (μM) 6.0 hr): 1.68 µM
- EC50 (EP2 prostanoid receptor; 8.0 hr incubation time, read-out: EC50 (μM) 8.0 hr): 1.65 µM
- EC50 (EP2 prostanoid receptor; EC50 (μM) 0.5 hr, 0.5 hr incubation time): 2.43 µM
- EC50 (EP2 prostanoid receptor; EC50 (μM) 1.0 hr, 1.0 hr incubation time): 2.27 µM
- EC50 (EP2 prostanoid receptor; EC50 (μM) 2.0 hr, 2.0 hr incubation time): 1.75 µM
- EC50 (EP2 prostanoid receptor; EC50 (μM) 3.0 hr, 3.0 hr incubation time): 1.81 µM
- EC50 (EP2 prostanoid receptor; EC50 (μM) 4.0 hr, 4.0 hr incubation time): 1.88 µM
- EC50 (EP2 prostanoid receptor; EC50 (μM) 5.0 hr, 5.0 hr incubation time): 1.91 µM
- EC50 (EP2 prostanoid receptor; EC50 (μM) 7.0 hr, 7.0 hr incubation time): 1.71 µM
SMILES: CCCCC[C@H](O)CC[C@@H]1[C@H]2Cc3cccc(OCC(=O)OCC)c3C[C@H]2C[C@H]1O [Compound C2-TR, treprostinil ethyl ester]
- Effect on cell proliferation, CHO-K1 Cells: detectable cell inhibition (CHO-K1 cells): No detectable cell inhibition
- Effect on cell proliferation, NR8383 Cells: detectable cell inhibition (NR8383 cells): No detectable cell inhibition

SMILES: CCCCC[C@H](O)CC[C@@H]1[C@H]2Cc3cccc(OCC(=O)OCCC)c3C[C@H]2C[C@H]1O [Compound C3-TR]
- Effect on cell proliferation, CHO-K1 Cells: detectable cell inhibition (CHO-K1 cells): No detectable cell inhibition
- Effect on cell proliferation, NR8383 Cells: detectable cell inhibition (NR8383 cells): No detectable cell inhibition

SMILES: CCCCC[C@H](O)CC[C@@H]1[C@H]2Cc3cccc(OCC(=O)OCCCC)c3C[C@H]2C[C@H]1O [Compound C4-TR]
- Effect on cell proliferation, CHO-K1 Cells: detectable cell inhibition (CHO-K1 cells): No detectable cell inhibition
- Effect on cell proliferation, NR8383 Cells: detectable cell inhibition (NR8383 cells): No detectable cell inhibition

SMILES: CCCCCCOC(=O)COc1cccc2c1C[C@H]1C[C@@H](O)[C@H](CC[C@@H](O)CCCCC)[C@H]1C2 [Compound C6-TR]
- Effect on cell proliferation, CHO-K1 Cells: detectable cell inhibition (CHO-K1 cells): No detectable cell inhibition
- Effect on cell proliferation, NR8383 Cells: detectable cell inhibition (NR8383 cells): No detectable cell inhibition
